Measured values taken from patent publication US20050250853A1, “Beta-tubulin inhibitors” (priority 1999, published 2005).
Entries after “also recorded” stand apart in the source; their conditions may differ.

Tests used:
MDA-MB-231 cells [1] = assay: cells; assay type: cell-based, human
Protocol: (§1) Human breast carcinoma cell line, MDA-MB-231, was obtained from the American Type Culture Collection (ATCC HTB-26; Bethesda, Md.). MDA-MB-231 cells were grown in RPMI 1640 medium supplemented with 10% bovine calf serum (Hyclone, Road Logan, Utah). Wild-type Chinese Hamster Ovary cells (CHO-10001) (7), colchicine- and vinblastine-resistant (CHO-VV 3-2) (8) and taxol-resistant (CHO-TAX 5-6) cells (9) were generously provided by Dr. Fernando Cabral (University of Texas Medical School, Houston, Tex.). These cells were cultured in RPMI 1640 containing 10% fetal bovine serum. SK—N—SH human neuroblastoma cells, (ATCC HTB-11; Bethesda, Md.) were cultured in MEM medium supplemented with 2 mM L-glutamine, 1.5 g/liter sodium bicarbonate, 0.1 mM non-essential amino acids, 1 mM sodium pyruvate and 10% fetal bovine serum. Cells were cultured in a humidified atmosphere at 37° C. in 5% CO2.
(§2) Cytotoxicity was assessed using the MTT assay (3-(4,5-dimethylthiazol-2-yl)-2,5-diphenyltetrazolium bromide) as described by Carmichael et al. (12).

β-tubulin [2] = assay: Separation of soluble and polymerized tubulins, Western blot of β-tubulin; assay type: cell-based, human; conditions: MDA-MB-231 cells, 30 μM, 24 h and 48 h; for formation of modified β-tubulin (second immunoreactive band of lower Mr): free tubulin fraction
Protocol: FIG. 2. Effects of CEU derivatives on microtubule depolymerization. Exponentially growing MDA-MB-231 cells were incubated in the absence or the presence of 30 μM of CEU derivatives including (A) 4-tBCEU, 4-iPCEU or 4-sBCEU for 24 and 48 h respectively; (B) 2-ECEU, 3-ECEU or 4-ECEU for 24 and 48 h; and (C) 4-tBEU, 4-iPEU, 4-sBEU, 4-tBCPU, CEU or 4-methoxyCEU for 48 h. Free tubulin and microtubule fractions were isolated and analyzed by Western blot. Data are representative of three different experiments.
Separation of soluble and polymerized tubulins from MDA-MB231 cells was carried out as described by Minotti et al. (14) with minor modifications. Briefly, after drug exposure, about 5×10^6 cells in 100-mm petri dishes were washed with PBS at 37° C. and harvested in 3 ml of PBS containing 0.4 μg/ml of taxol using a rubber policeman.
Cells were centrifuged and lysed using 250 μl of microtubule-stabilizing buffer (20 mM Tris-HCl, pH 6.8, 140 mM NaCl, 1 mM MgCl2, 2 mM EDTA, 0.5% Nonidet P-40 and 0.4 μg/ml taxol), and then transferred to 1.5 ml microcentrifuge tubes. Samples were centrifuged at 12,000×g for 10 min at 4° C. and the supernatants containing soluble tubulin were placed in separate microcentrifuge tubes containing 250 μl of 2× Laemmli sample buffer (15). Pellets containing the polymerized tubulin were resuspended in 250 μl of water, followed by two freeze/thawing cycles, and the addition of 250 μl of 2× Laemmli sample buffer. Samples were analyzed by SDS-PAGE and immunoassay was performed as described below.
(§3) Samples (1×10^5 cells) were analyzed by 10% SDS-PAGE using the Laemmli system (15). Membranes were then incubated with PBSMT (PBS, pH 7.4, 5% fat-free dry milk and 0.1% Tween-20) for 1 h at room temperature, and then with 1:500 monoclonal anti-β-tubulin (clone TUB 2.1, Sigma) or 1:400 anti (clone no. SDL.3D10, Sigma) for 1 h. […] Membranes were washed with PBSMT and incubated with 1:2500 peroxidase-conjugated anti-mouse immunoglobulin (Amersham Canada, Oakville, Canada) in PBSMT for 30 min. Detection of the immunoblot was carried out with the ECL Western blotting detection reagent kit (Amersham Canada, Oakville, Canada).

MDA-MB-231 cells [3] = assay: Cell cycle analysis by propidium iodide flow cytometry; assay type: cell-based, human; conditions: CEU derivatives at 30 μM, 24 h; flow cytometry
Protocol: FIG. 1. Effect of CEU derivatives on cell cycle. Exponentially growing MDA-MB-231 cells were incubated in the absence or presence of 30 μM of either 4-tBCEU, 4-iPCEU or 4-sBCEU for 24 and 48 h, respectively, at 37° C. The cell cycle was evaluated using propidium iodide staining and flow cytometric analysis. Data are representative of three independent experiments.
Following incubation of MDA-MB-231 cells with 4-tBCEU, 4-iPCEU or 4-sBCEU, the cells were harvested, resuspended in 1 ml PBS and fixed by the addition of 2.4 ml of ice cold anhydrous ethanol. Then, 5×10^5 cells from each sample were centrifuged for 3 min at 1000×g. Cell pellets were resuspended in PBS containing 50 μg/ml of PI and 40 U/ml of ribonuclease A (Boehringer Mannheim, Laval, Calif.). Mixtures were incubated at room temperature for 30 min and cell cycle distribution was analyzed using an Epics Elite ESP flow cytometer (Coulter Corporation, Miami, Fla., USA).
The effect of CEU, namely 4-tBCEU, 4-PCEU and 4-sBCEU, on the cell cycle was analyzed. To this end, exponentially growing MDA-MB-231 cells were treated with 30 μM 4-tBCEU, 4-iPCEU or 4-sBCEU for 24 or 48 h followed by an evaluation of cell cycle distribution by flow cytometry using propidium iodide, a fluorescent DNA dye. […] Induction of mitosis blockage in prophase by CEU derivatives was confirmed by mitotic index analysis as described by Drouin (22).

[4] = test system: CHO 10001 cells (wild-type); assay: MTT cytotoxicity on wild-type CHO cells; assay type: cell-based, Chinese hamster; conditions: Cricetulus griseus, CHO10001; wild-type CHO cells, 120 h, MTT, mean ± SD; read-out: IC50 CHO 10001
Protocol: as §1, with “Wild-type Chinese Hamster Ovary cells (CHO-10001) (7), colchicine- and vinblastine-resistant (CHO-VV 3-2) (8) and taxol-resistant (CHO-TAX 5-6) cells (9) were generously provided by Dr. Fernando Cabral (University of Texas Medical School, Houston, Tex.).” left out
as §2
(§4) The cytotoxicity of 4-tBCEU, 4-iPCEU and 4-sBCEU in two CHO cell lines having differential sensitivity to antmicrotubule agents was evaluated. These cell lines are derived from parental CHO-10001 cells and express mutated tubulins.

CHO TAX 5-6 cells = assay: MTT cytotoxicity on taxol-resistant CHO cells expressing mutated tubulin; assay type: cell-based, Chinese hamster; conditions: Cricetulus griseus, CHO-TAX 5-6; taxol-resistant CHO cells, 120 h, MTT, mean ± SD; read-out: IC50 CHO TAX 5-6
Protocol: as §1, with “Wild-type Chinese Hamster Ovary cells (CHO-10001) (7), colchicine- and vinblastine-resistant (CHO-VV 3-2) (8) and taxol-resistant (CHO-TAX 5-6) cells (9) were generously provided by Dr. Fernando Cabral (University of Texas Medical School, Houston, Tex.).” left out
as §2, §4

CHO VV 3-2 cells = assay: MTT cytotoxicity on vinblastine- and colchicine-resistant CHO cells expressing mutated tubulin; assay type: cell-based, Chinese hamster; conditions: Cricetulus griseus, CHO-VV 3-2; vinblastine- and colchicine-resistant CHO cells, 120 h, MTT, mean ± SD; read-out: IC50 CHO VV 3-2
Protocol: as §1, with “Wild-type Chinese Hamster Ovary cells (CHO-10001) (7), colchicine- and vinblastine-resistant (CHO-VV 3-2) (8) and taxol-resistant (CHO-TAX 5-6) cells (9) were generously provided by Dr. Fernando Cabral (University of Texas Medical School, Houston, Tex.).” left out
as §2, §4

β-tubulin [5] = assay: Competition with antimicrotubule agents for the site of β-tubulin alkylation; assay type: cell-based, human; conditions: for effect of competitor on formation of modified β-tubulin induced by CEU: MDA-MB-231 cells, 48 h, 30 μM CEU with 5 μM taxol, colchicine or vinblastine or 100 μM iodoacetamide
Protocol: FIG. 6. Identification of the site of alkylation of β-tubulin by CEU: competition with antimicrotubule agents. […] Data are representative of three different experiments.
as §3
The latter agents were used because they have well defined binding sites on β-tubulin (24-28) and because they were expected to inhibit alkylation by CEU if they shared a common binding site. […] These putative alkylation sites are two nucleophilic mercapto groups of cysteine residues at positions 239 and 354, respectively (25). To assess the possible alkylation of these mercapto residues by CEU, MDA-MB-231 cells were treated with 4-tBCEU in the presence of iodoacetamide, a specific thiol alkylating agent (31, 32). […] Similar experiments were carried out using EBI, a bifunctional alkylating agent that specifically induces cross-linking between Cys239 and Cys354 of β-tubulin (32).

Molecule	cytotoxicity in words (active / inactive CEU) (MDA-MB-231 cells [1])	microtubule depolymerization (β-tubulin [2])	formation of modified β-tubulin (second immunoreactive band of lower Mr) (β-tubulin [2])	further results
4-sec-butyl[3-(ethyl)ureido]benzene [Example 4-sBEU]	inactive	no depolymerization	no effect on β-tubulin	
4-tert-butyl[3-(2-chloropropyl)ureido]benzene [Example 4-tBCPU]	inactive	inactive		
O=C(NCCCl)Nc1ccccc1 [CEU]	inactive	inactive		
COc1cc2c(c(OC)c1OC)-c1ccc(OC)c(=O)cc1[C@@H](NC(C)=O)CC2 [Colchicine, reference compound]				accumulation of cells in G2+M (MDA-MB-231 cells [3]): G2+M block
CCc1ccccc1NC(=O)NCCCl [Example 2-ECEU, 2-ethyl[3-(2-chloroethyl)ureido]benzene]	inactive	no depolymerization	no effect on β-tubulin	
CCc1cccc(NC(=O)NCCCl)c1 [Example 3-ECEU, 3ethyl[3-(2-chloroethyl)ureido]benzene]		delayed in time	delayed in time	
CCc1ccc(NC(=O)NCCCl)cc1 [Example 4-ECEU, 4-ethyl(3-(2-chloroethyl)ureido]benzene]		delayed in time	delayed in time	
CCNC(=O)Nc1ccc(C(C)C)cc1 [Example 4-iPEU, 4-iso-propyl[3-(ethyl)ureido]benzene]		no depolymerization	no effect on β-tubulin	
COc1ccc(NC(=O)NCCCl)cc1 [Example 4-methoxyCEU, 4-methoxy[3-(2-chloroethyl)ureido]benzene]		inactive		
CCNC(=O)Nc1ccc(C(C)(C)C)cc1 [Example 4-tBEU, 4-tert-butyl[3-(ethyl)ureido]benzene]		no depolymerization	no effect on β-tubulin	
CC(=O)O[C@H]1C(=O)[C@@]2(C)[C@H]([C@H](OC(=O)c3ccccc3)[C@]3(O)C[C@H](OC(=O)[C@H](O)[C@@H](NC(=O)c4ccccc4)c4ccccc4)C(C)=C1C3(C)C)[C@]1(OC(C)=O)CO[C@@H]1C[C@@H]2O [Taxol, reference compound]			no such band	IC50 [4]: 1700 ± 300 nM; IC50 (CHO TAX 5-6 cells): 6100 nM; IC50 (CHO VV 3-2 cells): 1100 ± 200 nM; effect of competitor on formation of modified β-tubulin induced by CEU (β-tubulin [5]): abrogated the formation of modified β-tubulin
CC[C@]1(O)C[C@@H]2CN(CCc3c([nH]c4ccccc34)[C@@](C(=O)OC)(c3cc4c(cc3OC)N(C)[C@H]3[C@@](O)(C(=O)OC)[C@H](OC(C)=O)[C@]5(CC)C=CCN6CC[C@]43[C@@H]65)C2)C1 [Vinblastine, reference compound]			no such band	IC50 [4]: 30 ± 3 nM; IC50 (CHO TAX 5-6 cells): 21 ± 3 nM; IC50 (CHO VV 3-2 cells): 94 ± 3 nM; accumulation of cells in G2+M (MDA-MB-231 cells [3]): G2+M block; effect of competitor on formation of modified β-tubulin induced by CEU (β-tubulin [5]): but not vinblastine, prevented formation of the additional β-tubulin band; also recorded: but not vinblastine, prevented the formation of modified β-tubulin
NC(=O)CI [iodoacetamide]				effect of pre-treatment on β-tubulin alteration induced by EBI (β-tubulin [5]; 24 h with 5 μM colchicine, 5 μM vinblastine or 100 μM iodoacetamide, then 100 μM EBI for 2 h): abrogated; effect of competitor on formation of modified β-tubulin induced by CEU (β-tubulin [5]): completely prevented β-tubulin alkylation by 4-tBCEU
